The source of these data is patent US20170119776A1, “CHIRAL 2,5-DISUBSTITUTED CYCLOPENTANECARBOXYLIC ACID DERIVATIVES AND USE THEREOF” (BAYER PHARMA AKTIENGESELLSCHAFT, priority 2014, published 2017).

One series deals with T1, MMP-8 (Homo sapiens, UniProt P22894).
T1 construct: purchased R&D Systems 908-MP
Description: In vitro MMP-8 inhibition test. Format: biochemical. An excerpt: The activity strength of the compounds according to the invention towards other MMPs (and therefore their selectivity) is likewise ascertained in in vitro inhibition tests. The MMP-mediated amidolytic cleavage of a suitable peptide substrate also leads here to a fluorescent light increase. The signal intensity of the fluorescent light is directly proportional to the enzyme activity. The active concentration of a test compound at which half of the enzyme is inhibited (50% signal intensity of the fluorescent light) is given as IC50 value.
Recombinant MMP-8 (R&D Systems, 908-MP) is chemically activated in accordance with the manufacturer's instructions using APMA. 1 μl of the test compound to be analysed (as a solution in DMSO, suitable concentrations e.g. 1 nM to 30 μM) is pipette into 24 μl of activated enzyme (final concentration e.g. 0.5 nM) in reaction buffer (50 mM Tris/HCl pH 7.5, 10 mM CaCl2, 150 mM NaCl, 0.05% Brij®-35) in a white 384-hole microtiter plate (MTP). The enzymatic reaction is started by adding the intramolecularly quenched substrate Mca-Pro-Leu-Gly-Leu-Dpa(Dnp)-Ala-Arg-NH2 (final concentration e.g. 10 μM; R&D Systems, ES-001), such that a total test volume of 50 μl results. The progress of the MMP-8 reaction is measured by measuring the fluorescence intensity (excitation 320 nm, emission 410 nm) over a suitable period (e.g. over 120 min at a temperature of 32° C.).
The IC50 values were determined for racemates and enantiomers from differently generated DMSO stock solutions. Whereas an automatically produced DMSO stock solution from the internal substance logistics was used for racemates by means of a standard method, in the case of enantiomers a freshly produced, manually prepared DMSO stock solution was used in each case for a more precise direct comparison of the enantiomers with one another.

Series [1] concerns the target T2, human macrophage elastase (HME/hMMP-12) (Homo sapiens, UniProt P39900).
T2 construct: 0.5 nM HME; purchased R&D Systems 917-MP
Kind of series: In vitro HME inhibition test in the presence of serum albumin (2% BSA). The following applies: presence of serum albumin (BSA, 2% w/w). It is filed as biochemical. The text has this: The activity of the compounds according to the invention towards HME (MMP-12) is ascertained in an in vitro inhibition test. The HME-mediated amidolytic cleavage of a suitable peptide substrate leads herein to a fluorescent light increase. The signal intensity of the fluorescent light is directly proportional to the enzyme activity. The active concentration of a test compound at which half of the enzyme is inhibited (50% signal intensity of the fluorescent light) is given as IC50 value.
This test corresponds to the standard HME inhibition test described above, but using a modified reaction buffer. This reaction buffer additionally comprises bovine serum albumin (BSA, fatty acid-free, A6003, Sigma-Aldrich) of a final concentration of 2% (w/w), which corresponds to approximately half of the physiological serum albumin content.
Table 1 below gives the IC50 values from these HME inhibition tests for the working examples of the present invention and also for two structurally related comparison compounds from the prior art (as racemate or separated enantiomers)→(sometimes as average values from several independent individual determinations and rounded to two significant places). The IC50 values were determined for racemates and enantiomers from differently generated DMSO stock solutions. Whereas an automatically created DMSO stock solution from the internal substance logistics was used for racemates by means of a standard method, for enantiomers and for a more precise direct comparison of the enantiomers with one another, in each case a freshly produced, manually prepared DMSO stock solution was used.

The nature of series [2]: Pharmacokinetic investigations in vivo, dog. The following applies: Dog (Beagle). How it is done:
(§1) The substance to be examined is administered to rats, mice or dogs intravenously as a solution (for example in corresponding plasma with a small addition of DMSO or in a PEG/ethanol/water mixture), and peroral administration is effected as a solution (for example in Solutol/ethanol/water or PEG/ethanol/water mixtures) or as a suspension (e.g. in a water/tylose mixture), in each case via a gavage. After administration of the substance, blood is taken from the animals at fixed times. The blood is heparinized, then plasma is obtained therefrom by centrifugation. The test substance is quantified analytically in the plasma via LC-MS/MS. From the plasma concentration/time plots determined in this way, using an internal standard and with the aid of a validated computer program, the pharmacokinetic parameters, such as AUC (area under the concentration/time curve), Cmax (maximum plasma concentration), t1/2 (half life), VSS (distribution volume) and CL (clearance), and the absolute and relative bioavailability F and Frel (i.v./p.o. comparison or comparison of suspension to solution after p.o. administration), are calculated.

Series [3] is described as follows: Pharmacokinetic investigations in vivo, mouse. The following applies: Mouse (C57BL/6). The procedure:
as §1

Another series deals with rat hepatocytes. Description: Hepatocyte assay for determining the metabolic stability. It is filed as in vitro ADME. The following applies: incubation with rat hepatocytes. How it is done:
(§2) The metabolic stability of test compounds towards hepatocytes is determined by incubating the compounds at low concentrations (preferably below or around 1 μM) and at low cell counts (preferably at 1*10^6 cells/ml) in order to ensure the greatest possible linear kinetic conditions in the experiment. Seven samples from the incubation solution are removed within a stipulated time frame for the LC-MS analysis in order to determine the half life (i.e. the degradation) of the particular compound. This half life is used to calculate various “Clearance” parameters (CL) and “Fmax” values (see below).
(§3) The CL and Fmax values are a measure of the phase 1 and phase 2 metabolism of the compounds in the hepatocytes. In order to keep the influence of the organic solvent on the enzymes in the incubation mixtures as low as possible, its concentration is generally limited to 1% (acetonitrile) or 0.1% (DMSO).
(§4) For all species and races, a hepatocyte cell count in the liver of 1.1*10^8 cells/g of liver is estimated.
(§5) The calculated parameters and their meaning are: • Fmax well-stirred [%] Maximum possible bioavailability following oral application
(§6) Calculation: (1−CLblood well-stirred/QH)*100 • CLblood well-stirred [L/(h*kg)] Calculated blood clearance (well stirred model) […]

Assay in series [4]: as above
Format: in vitro ADME. The following applies: incubation with rat hepatocytes; read-out: Fmax (maximum possible bioavailability, well-stirred). The procedure:
as §2, §3, §4, §5, §6

[5] abbreviates: plasma, iv, read-out: CLPlasma CLblood (converted).
[6] abbreviates: plasma, po, p.o., read-out: t1/2 p.o. (converted).

T2 sequence (P39900 106-470): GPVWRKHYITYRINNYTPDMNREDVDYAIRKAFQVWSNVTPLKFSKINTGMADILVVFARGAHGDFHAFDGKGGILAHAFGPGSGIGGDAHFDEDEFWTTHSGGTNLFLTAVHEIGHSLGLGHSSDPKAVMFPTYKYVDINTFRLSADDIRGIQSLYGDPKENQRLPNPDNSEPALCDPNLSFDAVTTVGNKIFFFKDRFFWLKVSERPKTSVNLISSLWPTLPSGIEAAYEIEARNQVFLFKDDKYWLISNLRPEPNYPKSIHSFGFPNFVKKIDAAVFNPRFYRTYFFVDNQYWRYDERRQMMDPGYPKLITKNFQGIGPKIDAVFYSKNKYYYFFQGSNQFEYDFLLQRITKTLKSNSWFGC
T1 sequence (P22894 101-467): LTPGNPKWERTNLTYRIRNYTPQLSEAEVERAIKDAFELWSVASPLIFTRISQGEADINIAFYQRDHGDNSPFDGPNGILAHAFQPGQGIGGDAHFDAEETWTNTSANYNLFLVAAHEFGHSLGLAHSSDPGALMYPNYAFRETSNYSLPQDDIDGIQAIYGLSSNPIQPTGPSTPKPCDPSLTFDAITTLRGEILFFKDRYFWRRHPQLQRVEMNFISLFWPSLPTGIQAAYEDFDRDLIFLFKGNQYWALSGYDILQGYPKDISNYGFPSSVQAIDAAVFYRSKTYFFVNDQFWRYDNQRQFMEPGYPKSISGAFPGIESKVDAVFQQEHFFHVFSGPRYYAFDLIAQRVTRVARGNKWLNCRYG

On MMP-8, `O=C(O)[C@H]1[C@H](Cn2nnc3ccccc3c2=O)CC[C@@H]1C(=O)c1ccc(-c2ccc(Cl)cc2)cc1` (racemic) [Comparative Example A-1, (1RS,2RS,5SR)-2-[(4′-chlorobiphenyl-4-yl)carbonyl]-5-[(4-oxo-1,2,3-benzotriazin-3(4H)-yl)methyl]cyclopentanecarboxylic acid (racemate)] registered an IC50 of under 0.61 nM.

As to `CCCCCOc1ccc(C(=O)CC(CCn2nnc3ccccc3c2=O)C(=O)O)cc1` (single isomer, unassigned; enantiomer 1) [Comparative Example B-2, (+)-4-Oxo-2-[2-(4-oxo-1,2,3-benzotriazin-3(4H)-yl)ethyl]-4-[4-(pentyloxy)phenyl]butanoic acid (enantiomer 1)], the IC50 turned out to be 275 nM against MMP-8 and 170 nM in series [1].

Compound `CCCCCOc1ccc(C(=O)CC(CCn2nnc3ccccc3c2=O)C(=O)O)cc1` (racemic) [Comparative Example B-1, (+/−)-4-Oxo-2-[2-(4-oxo-1,2,3-benzotriazin-3(4H)-yl)ethyl]-4-[4-(pentyloxy)phenyl]butanoic acid (racemate)] showed an IC50 against MMP-8 of 706 nM.

For `O=C(O)[C@@H]1[C@@H](Cn2nnc3ccccc3c2=O)CC[C@H]1C(=O)c1ccc(-c2ccc(Cl)cc2)cc1` (single isomer, unassigned; enantiomer 2) [Comparative Example A-3, (1RS,2RS,5SR)-2-[(4′-Chlorobiphenyl-4-yl)carbonyl]-5-[(4-oxo-1,2,3-benzotriazin-3(4H)-yl)methyl]cyclopentanecarboxylic acid (enantiomer 2)], the figures for the IC50 (against MMP-8; in series [1]) were under 0.61 nM and 5.4 nM, respectively.

For `O=C(O)[C@H]1[C@H](Cn2nnc3ccccc3c2=O)CC[C@@H]1C(=O)c1ccc(OCc2ccccc2)cc1` [Example 2, (+)-(1S,2S,5R)-2-[4-(Benzyloxy)benzoyl]-5-[(4-oxo-1,2,3-benzotriazin-3(4H)-yl)methyl]cyclopentanecarboxylic acid], the F in series [2] (bioavailability from solution) worked out at 100%; in series [3] (bioavailability from solution), 84%. The results for the AUCnorm i.v. in series [2] (i.v.) and in series [3] (i.v.) were 10.6 kg·h/L and 44.6 kg·h/L, respectively. Also, the clearance in series [2] (setting [5]) is 1.57 mL/min/kg; in series [3] (setting [5]), 0.367 mL/min/kg. Also, the half-life is 14.4 h in series [2] (setting [6]) and 5 h in series [3] (setting [6]). The figures for the IC50 (against MMP-8; in series [1]) were 10.1 nM and 8.4 nM, respectively. In addition, the “CLblood (calculated blood clearance, well-stirred)” value in the series on rat hepatocytes was 10.8 mL/min/kg. In addition, the bioavailability in series [4] was found to be 84.4%.

The compound `O=C(O)[C@H]1[C@H](Cn2nnc3ccccc3c2=O)CC[C@@H]1C(=O)c1ccc(OCc2ccccc2)cc1` (racemic) [Example 1, (+/−)-(1RS,2RS,5SR)-2-[4-(Benzyloxy)benzoyl]-5-[(4-oxo-1,2,3-benzotriazin-3(4H)-yl)methyl]cyclopentanecarboxylic acid (racemate)] yielded a 50% inhibitory concentration (IC50) at MMP-8 of 9.2 nM.

Broadly, the IC50 is the concentration that gives 50% inhibition. By bioavailability is commonly meant dose-corrected exposure relative to a reference, in per cent.
